As usually defined, the EC50 is the midpoint of the concentration-response curve.

The results in this text go back to US9273067B2, “Pyrazolopyrimidine macrocycles as inhibitors of human immunodeficiency virus replication” (BRISTOL-MYERS SQUIBB COMPANY, priority 2014, dated 2016).

Series [1] relates to NL-RLuc virus (recombinant HIV NL4-3 with Renilla Luciferase) in MT-2 cells. Description: Inhibition of HIV replication (NL-RLuc virus in MT-2 cells, luciferase readout). As to conditions: MT2, 120 h, NL-RLuc virus infecting MT-2 cells, 5 days of incubation, 10% FBS, luciferase quantitation; at least 2 experiments. The class given is cell-based, human immunodeficiency virus (HIV). The essentials: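 NL4-3 carrying Renilla luciferase in place of part of nef, produced in 293T cells, was used to infect MT-2 cells in RPMI 1640/10% FBS with serial compound dilutions. After 5 days, virus growth was read by luciferase. EC50 came from the median effect equation over at least 2 experiments.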

The conditions of series [2]: rcm bond, 20-membered ring, Hoveyda-Grubbs II/CuI, DCE, 90.0 °C.

Like-named read-outs stand apart in the source and are kept apart here.

In the case of `CCOC(=O)[C@@H](OC(C)(C)C)c1c(C)nc2cc3nn2c1N1CCC(C)(CC1)OCC=Cc1cc(C(F)(F)F)ccc1COC3`, under “from C=CCOC1(C)CCN(c2c([C@H](OC(C)(C)C)C(=O)OCC)c(C)nc3cc(COCc4ccc(C(F)(F)F)cc4Br)nn23)CC1, cc_pd bond, 17-membered ring, Pd2(dba)3/PPh3/Et3N, MeCN, 35.1 mM, 120.0 °C, 23.0 h”, the ring closure, isolated yield came out at 62.9%.

In turn, `COC(=O)[C@@H](OC(C)(C)C)c1c(C)nc2cc3nn2c1N1CCC(C)(CC1)OCC=Cc1ccccc1COC3` yielded a ring closure, isolated yield (from C=CCOC1(C)CCN(c2c([C@H](OC(C)(C)C)C(=O)OC)c(C)nc3cc(COCc4ccccc4Br)nn23)CC1, cc_pd bond, 17-membered ring, Pd2(dba)3/PPh3/Et3N, acetonitrile, 40.0 mM, 120.0 °C, 18.0 h) of 78%.

For the setting “from C=CCOC1(C)CCN(c2c([C@H](OC(C)(C)C)C(=O)OCC)c(C)nc3cc(C=CCc4ccccc4Br)nn23)CC1, cc_pd bond, 17-membered ring, Pd2(dba)3/PPh3/Et3N, acetonitrile, 35.2 mM, 120.0 °C, 20.0 h”, `CCOC(=O)[C@@H](OC(C)(C)C)c1c(C)nc2cc3nn2c1N1CCC(C)(CC1)OCC=Cc1ccccc1CC=C3` yielded a ring closure, isolated yield of 51.6%.

As to `CCOC(=O)[C@@H](OC(C)(C)C)c1c(C)nc2cc3nn2c1N1CCC(C)(CC1)OCC=CCc1cc(F)c(F)cc1COC3`, the ring closure, isolated yield (from C=CCOC1(C)CCN(c2c([C@H](OC(C)(C)C)C(=O)OCC)c(C)nc3cc(COCc4cc(F)c(F)cc4CC=C)nn23)CC1, rcm bond, 18-membered ring, Grubbs II (0.1 eq), then NaBH4/MeOH, DCM, 1.56 mM, 40.0 °C, 2.0 h, 2 steps) came to 62.5%.

As for `Cc1nc2cc3nn2c(c1[C@H](OC(C)(C)C)C(=O)O)N1CCC(C)(CC1)OCC=CC[C@H](C)Oc1cc(F)cc(F)c1COC3` [Example 31, (2S)-2-(tert-Butoxy)-2-[(20S)-14,16-difluoro-4,20,26-trimethyl-11,19,25-trioxa-1,5,7,8-tetraazapentacyclo[24.2.2.1^6,^9.0^2,^7.0^13,^18]hentriaconta-2,4,6(31),8,13,15,17,22-octaen-3-yl]acetic acid], the concentration giving a half-maximal response (EC50) in series [1] was 12 nM. In series [2] (from C=CCOC1(C)CCN(c2c([C@H](OC(C)(C)C)C(=O)O)c(C)nc3cc(COCc4c(F)cc(F)cc4O[C@@H](C)CC=C)nn23)CC1, 11.5 mM, 1.5 h), this molecule yielded a ring closure, yield after HPLC of 5.67%.

On to `CCOC(=O)[C@@H](OC(C)(C)C)c1c(C)nc2cc3nn2c1N1CCC(C)(CC1)OCC=CCc1ccccc1COC3`, for which the ring closure, isolated yield (from C=CCOC1(C)CCN(c2c([C@H](OC(C)(C)C)C(=O)OCC)c(C)nc3cc(COCc4ccccc4CC=C)nn23)CC1, rcm bond, 18-membered ring, Hoveyda-Grubbs II (20 mol%)/CuI, 1,2-dichloroethane, 1.4 mM, 70.0 °C, 2.0 h) was 76%.

As to `CCOC(=O)[C@@H](OC(C)(C)C)c1c(C)nc2cc3nn2c1N1CCC(C)(CC1)OCC=CCc1cc(C)ccc1COC3`, for the setting “from C=CCOC1(C)CCN(c2c([C@H](OC(C)(C)C)C(=O)OCC)c(C)nc3cc(COCc4ccc(C)cc4CC=C)nn23)CC1, rcm bond, 18-membered ring, Grubbs II (1 eq), then NaBH4/MeOH, DCM, 1.62 mM, 40.0 °C, 2.0 h, 2 steps”, the ring closure, isolated yield was 62.6%.

With `CCOC(=O)[C@@H](OC(C)(C)C)c1c(C)nc2cc3nn2c1N1CCC(C)(CC1)OCC=CCCc1cccc(c1)COC3`, the ring closure, isolated yield (from C=CCCc1cccc(COCc2cc3nc(C)c([C@H](OC(C)(C)C)C(=O)OCC)c(N4CCC(C)(OCC=C)CC4)n3n2)c1, rcm bond, 20-membered ring, Grubbs II, DCM, 1.62 mM, 2.0 h, 2 steps) worked out at 41.8%.

Turning to `CCOC(=O)[C@@H](OC(C)(C)C)c1c(C)nc2cc3nn2c1N1CCC(C)(CC1)OCC=CCc1cc(F)ccc1COC3`, the ring closure, isolated yield (from C=CCOC1(C)CCN(c2c([C@H](OC(C)(C)C)C(=O)OCC)c(C)nc3cc(COCc4ccc(F)cc4CC=C)nn23)CC1, rcm bond, 18-membered ring, Grubbs II (1 eq), then NaBH4/MeOH, DCM, 1.6 mM, 40.0 °C, 2.0 h, 2 steps) stood at 44.7%.

On to `Cc1ccc2c(c1)COCc1cc3nc(C)c([C@H](OC(C)(C)C)C(=O)O)c(n3n1)N1CCC(C)(CC1)OCC=CC[C@H](C)O2` [Example 29, (2S)-2-(tert-Butoxy)-2-[(20S)-4,15,20,26-tetramethyl-11,19,25-trioxa-1,5,7,8-tetraazapentacyclo[24.2.2.1^6,^9.0^2,^7.0^13,^18]hentriaconta-2,4,6(31),8,13,15,17,22-octaen-3-yl]acetic acid], for which the 50% effective concentration (EC50) in series [1] turned out to be 6 nM. In addition, the ring closure, yield after HPLC in series [2] (from C=CCOC1(C)CCN(c2c([C@H](OC(C)(C)C)C(=O)O)c(C)nc3cc(COCc4cc(C)ccc4O[C@@H](C)CC=C)nn23)CC1, 13.0 mM, 3.0 h) was found to be 5.64%.
